Measurements from article PMC8345219 (Cancers, 2021).

Tests used:
[1] = tested on: HEK293 cells stably transfected with CMKLR1-eYFP; assay: Resazurin-based cell viability assay, HEK293-CMKLR1; details: Homo sapiens; HEK293-CMKLR1, 72 h; read-out: IC50 (toxicity)
Procedure: (§1) HEK293 cells stably transfected with CMKLR1-eYFP, empty HEK293 cells (15,000 cells in 100 µL suspension/well), or HMEC-1 cells (5000 cells in 100 µL suspension/well) in their respective cell culture media were seeded in 96 well plates (coated with poly D-lysine for HEK cells) and incubated at standard conditions overnight. Afterward, cells were incubated with peptides or MTX dissolved in cell culture media, and a medium without peptides was used as a control. […] Ethanol or media was removed and a 50 µL resazurin-based in vitro toxicology assay kit (Sigma-Aldrich, St. Lous, MO, USA) in cell culture media (1:10) was added to each well. After 1 h incubation time, the conversion of the resazurin was detected by measuring the fluorescence intensity at λem = 590 nm. All experiments were performed in duplicates and each experiment was repeated at least three times. Nonlinear regression was calculated using GraphPad Prism 5, curves were normalized to untreated and ethanol-treated cells.

[2] = tested on: untransfected HEK293 cells; assay: Resazurin-based cell viability assay, untransfected HEK293; details: Homo sapiens; HEK293 cells devoid of CMKLR1, 72 h; read-out: IC50 (toxicity)
Procedure: as §1

HMEC-1 cells = assay: Resazurin-based cell viability assay, HMEC-1; details: Homo sapiens; HMEC-1 cells endogenously expressing CMKLR1, 72 h; read-out: IC50 (toxicity)
Procedure: as §1

CN(Cc1cnc2nc(N)nc(N)c2n1)c1ccc(C(=O)N[C@@H](CCC(=O)O)C(=O)O)cc1 [MTX, Methotrexate, reference compound]
IC50 [1]: 471 nM | IC50 [2]: 373 nM | IC50 (HMEC-1 cells): 10000 nM
